From EP4144350B1, “TREATMENT OR PREVENTION OF VASCULAR MALFORMATION” (Universitätsmedizin Greifswald, priority 2021, dated 2023)

Tests used:
caspase-3 = test: Caspase-3 activity assay; format: cell-based, human
Protocol: The proliferation rate of mutant and wild-type ECs in monoculture was quantified with the CyQuant® Cell Proliferation Assay Kit (C7026, Thermo Fisher Scientific). To discriminate the proliferation rates of CCM3^+/+ and CCM3^-/- CI-huVEC in co-culture, the CyQuant® Cell Proliferation Assay results were combined with mutant allele frequencies that had been determined by amplicon deep sequencing. To analyse their sensitivity to apoptosis, mutant and wild-type ECs were seeded in 96-well plates with 15.000 cells per well, and treated with staurosporine (S440, Sigma-Aldrich, St. Louis, MO, USA) 24 h later. The Caspase-3 DEVD-R110 Fluorometric HTS Assay Kit (30009, Biotium, Fremont, CA, USA), the Cell Meter™ Caspase 8 Activity Apoptosis Assay Kit (22798, AAT Bioquest, Sunnyvale, CA, USA), and the Cell Meter™ Caspase 9 Activity Apoptosis Assay Kit (22799, AAT Bioquest) were used following the manufacturer's instructions.

colon-tumour xenografts = conditions: cited from earlier work

Caspase-3 activities (caspase-3; treatment for 24 h, CCM3^+/+ and CCM3^-/- CI-huVECs (Fig. 16)): did not increase caspase-3 activities
Compound: CN1CCN(C(=O)/C=C/c2ccc([N+](=O)[O-])o2)CC1 [NSC59984, (E)-1-(4-methylpiperazin-1-yl)-3-(5-nitrofuran-2yl)prop-2-en-1-one]
Apoptosis / caspase-3 activation (caspase-3; Fig. 16): induced apoptosis at a tolerable level | Adverse effects in xenograft mice (colon-tumour xenografts): Without apparent adverse effects | Growth of colon-tumour xenografts (colon-tumour xenografts; mice): repressed the growth of colon-tumour xenografts in mice
